In patent US11464750B2, “Anticancer agent and use thereof” (priority 2017, dated 2022):

Assays:
Type in all cases: cell-based, human
JeKo-1 cells = test: MTT assay, JeKo-1 cells; settings: 48 hours
Protocol: (§1) JeKo-1 cells of a cell line derived from a human mantle cell lymphoma were seeded in a 96-well plate at 1×10^4 cells/well/100 μL. In addition, Panc-1 cells of a cell line derived from a human pancreatic cancer were seeded in a 96-well plate at 3×10^3 cells/well/100 μL.
(§2) Subsequently, 3EZ,20Ac-ingenol at final concentrations of 0 (control), 0.1, 0.5, 1, 5, and 10 μM was added the wells of the respective cells, and culturing was performed for 48 hours. Subsequently, cell proliferation was examined by MTT assay using a Cell Proliferation Kit I (Roche Applied Science).
(§3) First, JeKo-1 cells were seeded in a 96-well plate at 1×10^4 cells/well/100 μL. Subsequently, irinotecan at a final concentration of 0 (control), 0.5, 1, 5, 10, 20, and 30 μM was added to the wells of the cells and culturing was performed for 48 hours. In addition, Panc-1 cells were seeded in a 96-well plate at 3×10^3 cells/well/100 μL. Subsequently, irinotecan at a final concentration of 0 (control), 0.5, 1, 5, 10, 20, 30, and 50 μM was added to the wells of the cells and culturing was performed for 48 hours. Subsequently, cell proliferation was examined by MTT assay using a Cell Proliferation Kit I (Roche Applied Science).

Panc-1 cells = test: MTT assay, Panc-1 cells; settings: irinotecan, 48 hours
Protocol: as §1, §2, §3

BALL-1 cells = test: MTT assay, BALL-1 cells; settings: 0.01, 0.05, 0.1, 0.5, and 1 μM, 48 hours
Protocol: BALL-1 cells of a cell line derived from […], TKG0210 cells of a human myeloid leukemia cell line, and TKG0377 cells of a human T cell acute leukemia cell line were seeded in 96-well plates at 2.5×10^4 cells/well/100 μL, and cultured for 48 hours in the presence of 3EZ,20Ac-ingenol at final concentrations of 0 (control), 0.5, 1, 5, and 10 μM. Subsequently, cell proliferation was examined by MTT assay using a Cell Proliferation Kit 1 (Roche Applied Science).
BALL-1 cells were exposed to 3EZ,20Ac-ingenol, 3EE,20Ac-ingenol, 20Ac-ingenol, and ingenol at concentrations of 0.01, 0.05, 0.1, 0.5, and 1 μM for 48 hours. Thereafter, cell proliferation was examined by MTT assay. Cells that were not exposed to the chemical were used as controls. The chemical formulas of 3EZ,20Ac-ingenol, 3EE,20Ac-ingenol, and 20Ac-ingenol are as described above. The chemical formula of ingenol is shown in the following Formula (7).

| SMILES | proliferation inhibition of JeKo-1 cells (JeKo-1 cells; 1 to 20 μM of irinotecan) | IC50 (JeKo-1 cells; Homo sapiens, JeKo-1, MTT assay, read-out: IC50 with respect to the JeKo-1 cells) [µM] | resistance of Panc-1 cells (Panc-1 cells) | inhibition of proliferation of the BALL-1 cells (BALL-1 cells) |
| --- | --- | --- | --- | --- |
| CCc1c2c(nc3ccc(OC(=O)N4CCC(N5CCCCC5)CC4)cc13)-c1cc3c(c(=O)n1C2)COC(=O)[C@]3(O)CC [irinotecan, reference compound] | grown cells were almost eliminated | 5 | showed resistance | – |
| CC(=O)OCC1=C[C@@H]2C(=O)C3(C=C(C)[C@H](O)[C@@]3(O)[C@@H]1O)[C@H](C)C[C@@H]1[C@H]2C1(C)C [20Ac-ingenol] | – | – | – | inhibition of proliferation of the BALL-1 cells was observed |
| CCCCC/C=C/C=C/C(=O)O[C@H]1C(C)=C[C@]23C(=O)[C@@H](C=C(COC(C)=O)[C@@H](O)[C@]12O)[C@H]1[C@@H](C[C@H]3C)C1(C)C [3EE,20Ac-ingenol] | – | – | – | a significant level of inhibition of proliferation |
| CC1=C[C@]23C(=O)[C@@H](C=C(CO)[C@@H](O)[C@]2(O)[C@H]1O)[C@H]1[C@@H](C[C@H]3C)C1(C)C [ingenol, reference compound] | – | – | – | little effect on proliferation |
